What was measured:
[1] = (S)-Methoprene concentration in fat of rat upon in vivo administration (radioassay/TLC); design: species or system Sprague-Dawley male rats
Description: Sprague-Dawley CD® VAF/PLUS® male rats were purchased from Charles River Breeding Laboratories, Inc., Portage, Michigan, USA. The body weights of the rats averaged 200 g at the time of dose administration. The rats were quarantined for five days before use, except for jugular vein-cannulated rats, to which doses were administered 1 to 3 days after receipt. The rats were divided into three groups for dosage with ^14C-(S)-methoprene: • Group A received a single dose of 10 mg/kg of the ovicide through intravenous injection via the jugular vein. Three rats each were sacrificed at 0.5 hour, 1 hour, 2 hours, 3 hours, 4 hours, 5 hours, 6 hours, and 7 hours after dosing. • Group B received a single dose 10 mg/kg of the ovicide through oral administration by gavage dosing. Three rats each were sacrificed at 1 hour, 2 hours, 3 hours, 4 hours, 5 hours, 6 hours, 7 hours, and 8 hours after dosing. • Group C received a single dose 100 mg/kg of the ovicide through oral administration by gavage dosing. Three rats each were sacrificed at 1 hour, 2 hours, 3 hours, 4 hours, 5 hours, 6 hours, 7 hours, and 8 hours after dosing. After dosing the rats were house individually in cages. Daily room temperature was maintained between 69°C and […] and the relative humidity was between 40% and 70%. All rats had free access to food and fresh tap water.
For analyses of the ovicide in fat, visceral fat was collected from the sacrificed rats. The fat sample from each rat was thoroughly mixed 1:1 with cellulose powder, and homogenized with a few drops of water. A portion (0.5 to 1 g) of each fat sample was extracted with 10 mL of a mixture of hexane/diethyl ether (1:1), which was treated vigorously on a sonicator for four minutes, then vortex mixed for two minutes and centrifuged. This procedure was repeated twice. The extracts were then combined, radioassayed, rotary evaporated, and concentrated under nitrogen for TLC analysis. A small amount of methanol was added to precipitate the fat to improve the TLC separation. Radioassays and TLC analyses were performed in the same manner as for the blood samples.

[2] = Methoprene blood concentrations in dogs following a single oral dose (gas chromatography); type: in vivo; conditions: single oral dose 50 mg/kg
Description: Six healthy mixed breed dogs, three male and three female, of weight ranging from 14 to 22 kg per dog and ages ranging from 2 to 5 years, were utilized. For each dog, a gelatin capsule containing a measured volume of (S)-methoprene was prepared, based on the dog's weight to yield a dose of 50 mg/kg of the dog's body weight in a single gelatin capsule for each dog. The dogs were fasted 24 hours before administration of their individual capsules, and dosing was achieved by placing the capsule in the back of each dog's throat and causing the dog to swallow. Food was then withheld for an additional 8 hours, although water was always available, and the dogs were fed once the following morning.
At each sampling time, 50 mL of blood was collected from the femoral vein of each dog into two 25-mL syringes. Samples were taken seven days prior to dosing (to establish a baseline), followed by three hours, 1 day, 2 days, 4 days, and 7 days after dosing.
To prepare the blood samples for methoprene content determinations, each 25-mL blood sample was mixed with 200 mL acetonitrile, 25 g anhydrous Na2SO4, and 10 g CELITE® in a blender for three one-minute segments, allowing the blender blades to cool for thirty seconds between segments. The mixture was then vacuum filtered, including a wash with 50 mL acetonitrile. The filtrate was extracted with petroleum ether for one minute, then diluted with 700 mL deionized water. To this was added 50 g NaCI and the solution was acidified to pH 2 with 0.5 N HCl. The aqueous phase was then discarded, and the petroleum ether phase was washed twice with 600 mL of deionized water. The petroleum ether was then filtered through a glass wool plug topped with 50 g Na2SO4. The Na2SO4 was then rinsed with 15 mL petroleum ether, and the extractant concentrated to 10 mL in a rotary evaporator, using a bath temperature of 30°C. The concentrated extractant was then stored in a refrigerator until the next step in the analysis.
Extraction columns were prepared by heat activating FLORISIL® (magnesium silicate absorbent) at 200°C for 24 hours, then allowing the FLORISIL to cool for 45 minutes, adding 5 mL of distilled water per 50 g of FLORISIL, shaking the mixture, and allowing it to equilibrate for 3 hours. A glass column with 28 mm intemal diameter was plugged with glass wool and filled with petroleum ether. A 1-cm layer of Na2SO4 was slowly poured into the column, followed by 6.5 cm of FLORISIL and 1.5 cm of Na2SO4. The petroleum ether was then drained until it reached the layer of Na2SO4. The extractant from the preceding paragraph was then loaded into the top of the column with a glass pipette, and its content rinsed with petroleum ether and added to the column. The column was then drained until the solvent layer was above the Na2SO4, and the eluant was discarded. Elution was then performed with 1 L of 5% diethyl ether/petroleum ether for each sample, and fractions of 175 mL and 825 mL were collected. The 825 mL fraction was then evaporated to 5 mL and stored in a refrigerator.
To prepare the 825 mL fraction for gas chromatography, one mL of internal standard was added to the sample, and the sample volume was evaporated to approximately 0.3 mL with nitrogen. Two aliquots of 5 µL each were injected on a gas chromatograph (Perkin Elmer, Sigma 300, with hydrogen flame ionization detector and data system) equipped with a 6-foot-by 1/4-inch glass column with 3% OV-101 Chrom W HP 100/120 mesh packing, using nitrogen at 60 mUmin as the carrier gas, and injector, column and detector temperatures of 300°C, 166°C, and 280°C, respectively.

COC(C)(C)CCC[C@H](C)C/C=C/C(C)=C/C(=O)OC(C)C [(S)-Methoprene, 1-isopropyl (E,E)-11-methoxy-3,7,11-trimethyl dodecadi-2,4-enoate]
(S)-Methoprene Concentration in Fat ([1]; Group A 10 mg/kg I.V., 0.5 hours, average of three animals): 4.193 ± 1.566 ppm | (S)-Methoprene Concentration in Fat ([1]; Group A 10 mg/kg I.V., 1 hour, average of three animals): 6.936 ± 3.259 ppm | (S)-Methoprene Concentration in Fat ([1]; Group A 10 mg/kg I.V., 2 hours, average of three animals): 5.929 ± 1.197 ppm | (S)-Methoprene Concentration in Fat ([1]; Group A 10 mg/kg I.V., 3 hours, average of three animals): 5.233 ± 0.457 ppm | (S)-Methoprene Concentration in Fat ([1]; Group A 10 mg/kg I.V., 4 hours, average of three animals): 8.179 ± 3.532 ppm | (S)-Methoprene Concentration in Fat ([1]; Group A 10 mg/kg I.V., 5 hours, average of three animals): 7.596 ± 3.990 ppm | (S)-Methoprene Concentration in Fat ([1]; Group A 10 mg/kg I.V., 6 hours, average of three animals): 6.734 ± 2.209 ppm | (S)-Methoprene Concentration in Fat ([1]; Group A 10 mg/kg I.V., 7 hours, average of three animals): 8.077 ± 1.082 ppm | (S)-Methoprene Concentration in Fat ([1]; Group B 10 mg/kg oral, 1 hour, average of three animals): 0.272 ± 0.103 ppm | (S)-Methoprene Concentration in Fat ([1]; Group B 10 mg/kg oral, 2 hours, average of three animals): 1.138 ± 0.388 ppm | (S)-Methoprene Concentration in Fat ([1]; Group B 10 mg/kg oral, 3 hours, average of three animals): 1.715 ± 0.680 ppm | (S)-Methoprene Concentration in Fat ([1]; Group B 10 mg/kg oral, 4 hours, average of three animals): 2.327 ± 1.090 ppm | (S)-Methoprene Concentration in Fat ([1]; Group B 10 mg/kg oral, 5 hours, average of three animals): 2.980 ± 0.657 ppm | (S)-Methoprene Concentration in Fat ([1]; Group B 10 mg/kg oral, 6 hours, average of three animals): 3.369 ± 0.814 ppm | (S)-Methoprene Concentration in Fat ([1]; Group B 10 mg/kg oral, 7 hours, average of three animals): 2.921 ± 1.345 ppm | (S)-Methoprene Concentration in Fat ([1]; Group B 10 mg/kg oral, 8 hours, average of three animals): 2.408 ± 0.702 ppm | (S)-Methoprene Concentration in Fat ([1]; Group C 100 mg/kg oral, 1 hour, average of two animals): 1.060 ± 0.270 ppm | (S)-Methoprene Concentration in Fat ([1]; Group C 100 mg/kg oral, 2 hours, average of three animals): 14.726 ± 3.371 ppm | (S)-Methoprene Concentration in Fat ([1]; Group C 100 mg/kg oral, 3 hours, average of three animals): 22.868 ± 3.322 ppm | (S)-Methoprene Concentration in Fat ([1]; Group C 100 mg/kg oral, 4 hours, average of three animals): 45.316 ± 16.910 ppm | (S)-Methoprene Concentration in Fat ([1]; Group C 100 mg/kg oral, 5 hours, average of three animals): 38.420 ± 2.765 ppm | (S)-Methoprene Concentration in Fat ([1]; Group C 100 mg/kg oral, 6 hours, average of three animals): 41.898 ± 11.568 ppm | (S)-Methoprene Concentration in Fat ([1]; Group C 100 mg/kg oral, 7 hours, average of three animals): 39.393 ± 17.952 ppm | (S)-Methoprene Concentration in Fat ([1]; Group C 100 mg/kg oral, 8 hours, average of three animals): 47.162 ± 20.116 ppm | concentration at 0 h ([2]; both sexes, mixed breed, dog, in vivo, mean of six dogs, 0 hours (baseline, seven days prior to dosing)): 0 ng/mL | concentration at 3 h ([2]; both sexes, mixed breed, dog, in vivo, mean of six dogs, 3 hours): 547 ng/mL | concentration at 24 h ([2]; both sexes, mixed breed, dog, in vivo, mean of six dogs, 24 hours): 85 ng/mL | concentration at 48 h ([2]; both sexes, mixed breed, dog, in vivo, mean of six dogs, 48 hours): 104 ng/mL | time by which methoprene level fell below detectable amounts ([2]; remaining four of the six dogs): ≤ 96 h | time (S)-methoprene remains in the dogs' blood [2]: 48 to 96 h | time by which methoprene level fell below detectable amounts ([2]; two of the six dogs): ≤ 48 h
